# Tests used:
# S. aureus = assay: MIC assay, S. aureus; format: cell-based, Staphylococcus aureus
# S. pneumo. = assay: MIC assay, S. pneumo.; format: cell-based, Streptococcus pneumoniae
# E. faecalis = assay: MIC assay, E. faecalis; format: cell-based, Enterococcus faecalis
# H. flu = format: cell-based, H. influenza; conditions: H. flu
# E coli = assay: MIC assay, E coli; format: cell-based
SMILES,MIC (μg/mL) S. aureus (S. aureus) [µg/mL],MIC (μg/mL) S. pneumo. (S. pneumo.) [µg/mL],MIC (μg/mL) E. faecalis (E. faecalis) [µg/mL],MIC (μg/mL) H. flu (H. flu) [µg/mL],MIC (μg/mL) E coli (E coli) [µg/mL]
"CO[C@H]1/C=C/O[C@@]2(C)Oc3c(C)c(O)c4c(=O)c(c5oc6cc(N7C[C@@H]8CCCN[C@@H]8C7)cc(O)c6nc-5c4c3C2=O)NC(=O)/C(C)=C\C=C\[C@H](C)[C@H](O)[C@@H](C)[C@@H](O)[C@@H](C)[C@H](OC(C)=O)[C@@H]1C [Compound 5, 3′-hydroxy-5′-[(4aS,7aS)-octahydro-6H-pyrrolo[3,4-b]pyridin-6-yl]benzoxazinorifamycin]",0.015,0.00025,0.5,2,8
"CO[C@H]1/C=C/O[C@@]2(C)Oc3c(C)c(O)c4c(=O)c(c5oc6cc(N7C[C@@H]8CCCN[C@@H]8C7)cc(O)c6nc-5c4c3C2=O)NC(=O)/C(C)=C\C=C\[C@H](C)[C@H](O)[C@@H](C)[C@@H](O)[C@@H](C)[C@H](O)[C@@H]1C [Compound 7, 25-O-deacetyl-3′-hydroxy-5′-[(4aS,7aS)-octahydro-6H-pyrrolo[3,4-b]pyridin-6-yl]benzoxazinorifamycin]",0.12,0.004,4,4,>8
"CO[C@H]1/C=C/O[C@@]2(C)Oc3c(C)c(O)c4c(=O)c(c5oc6cc(N7CCC(N8CCOCC8)CC7)cc(O)c6nc-5c4c3C2=O)NC(=O)/C(C)=C\C=C\[C@H](C)[C@H](O)[C@@H](C)[C@@H](O)[C@@H](C)[C@H](OC(C)=O)[C@@H]1C [Compound 9, 3′-hydroxy-5′-(4-morpholinyl-1-piperidinyl)benzoxazinorifamycin]",0.015,0.001,2,2,8
"CO[C@H]1/C=C/O[C@@]2(C)Oc3c(C)c(O)c4c(=O)c(c5oc6cc(N7CC8CCC(C7)N8)cc(O)c6nc-5c4c3C2=O)NC(=O)/C(C)=C\C=C\[C@H](C)[C@H](O)[C@@H](C)[C@@H](O)[C@@H](C)[C@H](OC(C)=O)[C@@H]1C [Compound 10, 3′-hydroxy-5′-(3,8-diazabicyclo[3.2.1]octan-3-yl)benzoxazinorifamycin]",0.008,0.00012,1,2,>8
"CO[C@H]1/C=C/O[C@@]2(C)Oc3c(C)c(O)c4c(=O)c(c5oc6cc(N7CCC(N8CCOCC8)CC7)cc(O)c6nc-5c4c3C2=O)NC(=O)/C(C)=C\C=C\[C@H](C)[C@H](O)[C@@H](C)[C@@H](O)[C@@H](C)[C@H](O)[C@@H]1C [Compound 11, 25-O-deacetyl-3′-hydroxy-5′-(4-morpholinyl-1-piperidinyl)benzoxazinorifamycin]",0.004,0.00012,0.25,1,4
"CO[C@H]1/C=C/O[C@@]2(C)Oc3c(C)c(O)c4c(=O)c(c5oc6cc(N7C[C@H]8CCCN[C@H]8C7)cc(O)c6nc-5c4c3C2=O)NC(=O)/C(C)=C\C=C\[C@H](C)[C@H](O)[C@@H](C)[C@@H](O)[C@@H](C)[C@H](OC(C)=O)[C@@H]1C [Compound 12, 3′-hydroxy-5′-[(4aR,7aR)-octahydro-6H-pyrrolo[3,4-b]pyridin-6-yl]benzoxazinorifamycin]",0.004,0.00025,0.12,0.25,8
CO[C@H]1/C=C/O[C@@]2(C)Oc3c(C)c(O)c4c(=O)c(c5oc6cc(N7CCC(NC(=O)OCC(C)C)CC7)cc(O)c6nc-5c4c3C2=O)NC(=O)/C(C)=C\C=C\[C@H](C)[C@H](O)[C@@H](C)[C@@H](O)[C@@H](C)[C@H](OC(C)=O)[C@@H]1C [Compound 13],0.008,0.00012,0.5,2,4
"CO[C@H]1/C=C/O[C@@]2(C)Oc3c(C)c(O)c4c(=O)c(c5oc6cc(N7C[C@H]8CCCN[C@H]8C7)cc(O)c6nc-5c4c3C2=O)NC(=O)/C(C)=C\C=C\[C@H](C)[C@H](O)[C@@H](C)[C@@H](O)[C@@H](C)[C@H](O)[C@@H]1C [Compound 15, 25-O-deacetyl-3′-hydroxy-5′-[(4aR,7aR)-octahydro-6H-pyrrolo[3,4-b]pyridin-6-yl]benzoxazinorifamycin]",0.03,0.002,0.25,1,>8
"CO[C@H]1/C=C/O[C@@]2(C)Oc3c(C)c(O)c4c(=O)c(c5oc6cc(N7CC8CCC(C7)N8)cc(O)c6nc-5c4c3C2=O)NC(=O)/C(C)=C\C=C\[C@H](C)[C@H](O)[C@@H](C)[C@@H](O)[C@@H](C)[C@H](O)[C@@H]1C [Compound 16, 25-O-deacetyl-3′-hydroxy-5′-(3,8-diazabicyclo[3.2.1]octan-3-yl)benzoxazinorifamycin]",0.015,0.001,0.12,0.25,4
"CO[C@H]1/C=C/O[C@@]2(C)Oc3c(C)c(O)c4c(=O)c(c5oc6cc(N7CCC(N(C)C)CC7)cc(O)c6nc-5c4c3C2=O)NC(=O)/C(C)=C\C=C\[C@H](C)[C@H](O)[C@@H](C)[C@@H](O)[C@@H](C)[C@H](OC(C)=O)[C@@H]1C [Compound 17, 3′-hydroxy-5′-(4-N,N-dimethylamino-1-piperidinyl)benzoxazinorifamycin]",0.008,0.00012,1,1,8
"CO[C@H]1/C=C/O[C@@]2(C)Oc3c(C)c(O)c4c(=O)c(c5oc6cc(N7CCC(N(C)C)CC7)cc(O)c6nc-5c4c3C2=O)NC(=O)/C(C)=C\C=C\[C@H](C)[C@H](O)[C@@H](C)[C@@H](O)[C@@H](C)[C@H](O)[C@@H]1C [Compound 18, 25-O-deacetyl-3′-hydroxy-5′-(4-N,N dimethylamino-1-piperidinyl)benzoxazinorifamycin]",0.004,0.00012,0.12,0.5,4
CCOC(=O)NC1CCN(c2ccc3nc4c5c6c7c(C)c(O)c5c(=O)c(c-4n(C)c3c2)NC(=O)/C(C)=C\C=C\[C@H](C)[C@H](O)[C@@H](C)[C@@H](O)[C@@H](C)[C@H](OC(C)=O)[C@H](C)[C@@H](OC)/C=C/O[C@@](C)(O7)C6=O)CC1 [Compound 19],0.004,0.001,0.06,0.25,4
"COC1C=COC2(C)Oc3c(C)c(O)c4c(=O)c(c5oc6cc(N7CC8C(N)C8C7)cc(O)c6nc-5c4c3C2=O)NC(=O)C(C)=CC=CC(C)C(O)C(C)C(O)C(C)C(O)C1C [Compound 20, 25-O-deacetyl-3′-hydroxy-5′-[6-amino-(1R,5S)-3-azabicyclo[3.1.0]hex-3-yl]benzoxazinorifamycin]",2,1,>8,>8,>8
CCOC(=O)NC1C2CN(c3cc(O)c4nc5c6c7c8c(C)c(O)c6c(=O)c(c-5oc4c3)NC(=O)C(C)=CC=CC(C)C(O)C(C)C(O)C(C)C(OC(C)=O)C(C)C(OC)C=COC(C)(O8)C7=O)CC21 (stereo not drawn) [Compound 21],0.004,0.001,0.12,0.5,4
CO[C@H]1/C=C/O[C@@]2(C)Oc3c(C)c(O)c4c(=O)c(c5oc6cc(N7CCC(NC(=O)OC(C)C)CC7)cc(O)c6nc-5c4c3C2=O)NC(=O)/C(C)=C\C=C\[C@H](C)[C@H](O)[C@@H](C)[C@@H](O)[C@@H](C)[C@H](OC(C)=O)[C@@H]1C [Compound 22],0.015,0.00025,4,2,>8
CO[C@H]1/C=C/O[C@@]2(C)Oc3c(C)c(O)c4c(=O)c(c5oc6cc(N7CCC(NS(=O)(=O)C(F)(F)F)CC7)cc(O)c6nc-5c4c3C2=O)NC(=O)/C(C)=C\C=C\[C@H](C)[C@H](O)[C@@H](C)[C@@H](O)[C@@H](C)[C@H](OC(C)=O)[C@@H]1C [Compound 23],0.015,0.00012,4,2,>8
"CCCC(=O)NC1CCN(c2cc(O)c3nc4c5c6c7c(C)c(O)c5c(=O)c(c-4oc3c2)NC(=O)/C(C)=C\C=C\[C@H](C)[C@H](O)[C@@H](C)[C@@H](O)[C@@H](C)[C@H](OC(C)=O)[C@H](C)[C@@H](OC)/C=C/O[C@@](C)(O7)C6=O)CC1 [Compound 24, 3′-hydroxy-5′-[4-butanamide-1-piperidinyl]benzoxazinorifamycin]",0.015,0.001,2,2,>8
CO[C@H]1/C=C/O[C@@]2(C)Oc3c(C)c(O)c4c(=O)c(c5oc6cc(N7CCC(NS(C)(=O)=O)CC7)cc(O)c6nc-5c4c3C2=O)NC(=O)/C(C)=C\C=C\[C@H](C)[C@H](O)[C@@H](C)[C@@H](O)[C@@H](C)[C@H](OC(C)=O)[C@@H]1C [Compound 25],0.008,0.001,2,2,>8
